The test concerns Mycobacterium tuberculosis. Briefly: Antimycobacterial activity against Mycobacterium tuberculosis by radiorespirometric bioassay. Type of test: functional, organism-based.

Activity calls are given as the source filed them. The rule behind the calls is not given here.

For `CC(C)=CCC/C(C)=C/CC/C(C)=C/CO`, the result was Active.

The record behind these values is ChEMBL document CHEMBL1150637, “African elephant sesquiterpenes. II. Identification and synthesis of new derivatives of 2,3-dihydrofarnesol” (J Nat Prod, 2002).
